The target of assay [1] is Bcl-2 protein (histag-Bcl-2, UniProtKB P10415) (Homo sapiens (Human), UniProt P10415). In words: Inhibition of Bcl-2 by the fluorescence polarisation technique. The assay is classed as binding. To be noted: for IC50: fluorescence polarisation test, incubation for 2 hours, read-out: IC50 (nM) Bcl-2 FP. From the text:
For partial inhibitors, the percentage fluorescence polarisation inhibition for a given concentration of the test compound is indicated.
On the technique in general: Polarisation of emitted light reports the rotation of a fluorescent probe.

The subject of assay [2] is RS4; 11 leukaemia cell line. In words: In vitro cytotoxicity, Microculture Tetrazolium Assay (MTT). The format is cell-based. To be noted: Homo sapiens, 11 cells exposed for 48 hours. As for the experimental part:
The cytotoxicity studies were carried out on the RS4; 11 leukaemia cell line and on H146 small Cell Lung Carcinoma cell line. The cells are distributed onto microplates and exposed to the test compounds for 48 hours. The cell viability is then quantified by a colorimetric assay, the Microculture Tetrazolium Assay (Cancer Res., 1987, 47, 939-942).

Where a name gives a salt, the structure may show the parent alone.

Bcl-2 protein, sequence (P10415 whole entry): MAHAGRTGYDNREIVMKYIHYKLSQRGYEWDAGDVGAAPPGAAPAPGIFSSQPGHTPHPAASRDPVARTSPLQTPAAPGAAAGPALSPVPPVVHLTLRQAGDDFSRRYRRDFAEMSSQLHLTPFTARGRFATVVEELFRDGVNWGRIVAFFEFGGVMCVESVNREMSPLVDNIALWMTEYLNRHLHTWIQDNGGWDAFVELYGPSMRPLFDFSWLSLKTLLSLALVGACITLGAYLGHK

As usually defined, the IC50 is the point on the concentration scale where inhibition reaches its midpoint. Consider `CN(C(=O)c1cc(-c2cc3c(cc2C(=O)N2Cc4ccccc4C[C@H]2CN2CCOCC2)CN(C(=O)OC(C)(C)C)CC3)n2c1CCCC2)c1ccc(O)cc1` [Example 1, tert-Butyl 6-{1-[(4-hydroxyphenyl)(methyl)carbamoyl]-5,6,7,8-tetrahydroindolizin-3-yl}-7-[(3S)-3-(morpholin-4-ylmethyl)-1,2,3,4-tetrahydroisoquinoline-2-carbonyl]-1,2,3,4-tetrahydroisoquinoline-2-carboxylate], for which the IC50 worked out at 13 nM in assay [1] and 140 nM in assay [2].
The corresponding values for `CN(C(=O)c1cc(-c2cc3c(cc2C(=O)N2Cc4ccccc4C[C@H]2CN2CCOCC2)CNCC3)n2c1CCCC2)c1ccc(O)cc1` [Example 2, N-(4-Hydroxyphenyl)-N-methyl-3-{7-[(3S)-3-(morpholin-4-ylmethyl)-1,2,3,4-tetrahydroisoquinoline-2-carbonyl]-1,2,3,4-tetrahydroisoquinolin-6-yl}-5,6,7,8-tetrahydroindolizine-1-carboxamide dihydrochloride] are 397 nM and greater than 1880 nM.
The corresponding values for `CN(C(=O)c1cc(-c2cc3c(cc2C(=O)N2Cc4ccccc4C[C@H]2CN2CCOCC2)CN(S(=O)(=O)c2ccccc2)CC3)n2c1CCCC2)c1ccc(O)cc1` [Example 3, 3-[2-(Benzenesulfonyl)-7-[(3S)-3-(morpholin-4-ylmethyl)-1,2,3,4-tetrahydroisoquinoline-2-carbonyl]-1,2,3,4-tetrahydroisoquinolin-6-yl]-N-(4-hydroxyphenyl)-N-methyl-5,6,7,8-tetrahydroindolizine-1-carboxamide] are 18 nM and 236 nM.
Regarding `CN(C(=O)c1cc(-c2cc3c(cc2C(=O)N2Cc4ccccc4C[C@H]2CN2CCOCC2)CN(S(=O)(=O)Cc2ccccc2)CC3)n2c1CCCC2)c1ccc(O)cc1` [Example 4, N-(4-Hydroxyphenyl)-N-methyl-3-{7-[(3S)-3-(morpholin-4-ylmethyl)-1,2,3,4-tetrahydroisoquinoline-2-carbonyl]-2-phenylmethanesulfonyl-1,2,3,4-tetrahydroisoquinolin-6-yl}-5,6,7,8-tetrahydroindolizine-1-carboxamide], the figures for the IC50 in assay [1] and in assay [2] were 9.2 nM and 71 nM, respectively.
For `CN(C(=O)c1cc(-c2cc3c(cc2C(=O)N2Cc4ccccc4C[C@H]2CN2CCOCC2)CN(S(=O)(=O)c2ccc4ccccc4c2)CC3)n2c1CCCC2)c1ccc(O)cc1` [Example 5, N-(4-Hydroxyphenyl)-N-methyl-3-{7-[(3S)-3-(morpholin-4-ylmethyl)-1,2,3,4-tetrahydroisoquinoline-2-carbonyl]-2-(naphthalene-2-sulfonyl)-1,2,3,4-tetrahydroisoquinolin-6-yl}-5,6,7,8-tetrahydroindolizine-1-carboxamide], in that order: 43 nM and 70 nM.
As to `CN(C(=O)c1cc(-c2cc3c(cc2C(=O)N2Cc4ccccc4C[C@H]2CN2CCOCC2)CN(C(=O)OC(C)(C)C)C3)n2c1CCCC2)c1ccc(O)cc1` [Example 6, tert-Butyl 5-{1-[(4-hydroxyphenyl)(methyl)carbamoyl]-5,6,7,8-tetrahydroindolizin-3-yl}-6-[(3S)-3-(morpholin-4-ylmethyl)-1,2,3,4-tetrahydroisoquinoline-2-carbonyl]-2,3-dihydro-1H-isoindole-2-carboxylate], the IC50 in assay [1] was 95 nM; in assay [2], greater than 1880 nM.
One may read the inhibition as the drop in the measured response relative to a control, in per cent. With `CN(C(=O)c1cc(-c2cc3c(cc2C(=O)N2Cc4ccccc4C[C@H]2CN2CCOCC2)CNC3)n2c1CCCC2)c1ccc(O)cc1` [Example 7, N-(4-Hydroxyphenyl)-N-methyl-3-{6-[(3S)-3-(morpholin-4-ylmethyl)-1,2,3,4-tetrahydroisoquinoline-2-carbonyl]-2,3-dihydro-1H-isoindol-5-yl}-5,6,7,8-tetrahydroindolizine-1-carboxamide; dihydrochloride salt], the inhibition at 3.3 µM in assay [1] (partial inhibitor, concentration of test compound 3.3 μM, read-out: percentage fluorescence polarisation inhibition (Bcl-2 FP)) was determined as 72%. The same molecule displayed an IC50 in assay [2] of 1080 nM.
Turning to `CN(C(=O)c1cc(-c2cc3c(cc2C(=O)N2Cc4ccccc4C[C@H]2CN2CCOCC2)CN(C(=O)Cc2ccccc2)C3)n2c1CCCC2)c1ccc(O)cc1` [Example 8, N-(4-Hydroxyphenyl)-N-methyl-3-{6-[(3S)-3-(morpholin-4-ylmethyl)-1,2,3,4-tetrahydroisoquinoline-2-carbonyl]-2-(2-phenylacetyl)-2,3-dihydro-1H-isoindol-5-yl}-5,6,7,8-tetrahydroindolizine-1-carboxamide; hydrochloride salt], the IC50 came to 7.3 nM in assay [1] and 98 nM in assay [2].
As to `CN(C(=O)c1cc(-c2cc3c(cc2C(=O)N2Cc4ccccc4C[C@H]2CN2CCOCC2)CN(C(=O)CCc2ccccc2)C3)n2c1CCCC2)c1ccc(O)cc1` [Example 9, N-(4-Hydroxyphenyl)-N-methyl-3-{6-[(3S)-3-(morpholin-4-ylmethyl)-1,2,3,4-tetrahydroisoquinoline-2-carbonyl]-2-(3-phenylpropanoyl)-2,3-dihydro-1H-isoindol-5-yl}-5,6,7,8-tetrahydroindolizine-1-carboxamide hydrochloride], the values for the IC50 in assay [1] and in assay [2] were 9 nM and 125 nM, respectively.
Consider `C[C@@H]1Cc2ccccc2CN1C(=O)c1cc2c(cc1-c1cc(C(=O)N(C)c3ccc(O)cc3)c3n1CCCC3)CNC2` [Example 10, N-(4-Hydroxyphenyl)-N-methyl-3-{6-[(3R)-3-methyl-1,2,3,4-tetrahydroisoquinoline-2-carbonyl]-2,3-dihydro-1H-isoindol-5-yl}-5,6,7,8-tetrahydroindolizine-1-carboxamide], for which the IC50 in assay [1] was 127 nM.
For `CCC(=O)N1Cc2cc(C(=O)N3Cc4ccccc4C[C@H]3CN3CCOCC3)c(-c3cc(C(=O)N(C)c4ccc(O)cc4)c4n3CCCC4)cc2C1` [Example 11, N-(4-Hydroxyphenyl)-N-methyl-3-{6-[(3S)-3-(morpholin-4-ylmethyl)-1,2,3,4-tetrahydroisoquinoline-2-carbonyl]-2-propanoyl-2,3-dihydro-1H-isoindol-5-yl}-5,6,7,8-tetrahydroindolizine-1-carboxamide hydrochloride], the values for the IC50 in assay [1] and in assay [2] were 22 nM and 763 nM, respectively.
The corresponding values for `CN(C(=O)c1cc(-c2cc3c(cc2C(=O)N2Cc4ccccc4C[C@H]2CN2CCOCC2)CN(C(=O)c2ccccc2)C3)n2c1CCCC2)c1ccc(O)cc1` [Example 12, 3-{2-Benzoyl-6-[(3S)-3-(morpholin-4-ylmethyl)-1,2,3,4-tetrahydroisoquinoline-2-carbonyl]-2,3-dihydro-1H-isoindol-5-yl}-N-(4-hydroxyphenyl)-N-methyl-5,6,7,8-tetrahydroindolizine-1-carboxamide hydrochloride] are 43 nM and 759 nM.
In the case of `C[C@@H]1Cc2ccccc2CN1C(=O)c1cc2c(cc1-c1cc(C(=O)N(C)c3ccc(O)cc3)c3n1CCCC3)CN(C(=O)OC(C)(C)C)C2` [Example 13, tert-Butyl 5-{1-[(4-hydroxyphenyl)(methyl)carbamoyl]-5,6,7,8-tetrahydroindolizin-3-yl}-6-[(3R)-3-methyl-1,2,3,4-tetrahydroisoquinoline-2-carbonyl]-2,3-dihydro-1H-isoindole-2-carboxylate], the IC50 turned out to be 108 nM in assay [1] and 729 nM in assay [2].
For `C[C@@H]1Cc2ccccc2CN1C(=O)c1cc2c(cc1-c1cc(C(=O)N(C)c3ccc(O)cc3)c3n1CCCC3)CN(C(=O)Cc1ccccc1)C2` [Example 14, N-(4-Hydroxyphenyl)-N-methyl-3-{6-[(3R)-3-methyl-1,2,3,4-tetrahydroisoquinoline-2-carbonyl]-2-(2-phenylacetyl)-2,3-dihydro-1H-isoindol-5-yl}-5,6,7,8-tetrahydroindolizine-1-carboxamide], in that order: 7.9 nM and 27 nM.
The corresponding values for `C[C@@H]1Cc2ccccc2CN1C(=O)c1cc2c(cc1-c1cc(C(=O)N(C)c3ccc(O)cc3)c3n1CCCC3)CN(C(=O)CCc1ccccc1)C2` [Example 15, N-(4-Hydroxyphenyl)-N-methyl-3-{6-[(3R)-3-methyl-1,2,3,4-tetrahydroisoquinoline-2-carbonyl]-2-(3-phenylpropanoyl)-2,3-dihydro-1H-isoindol-5-yl}-5,6,7,8-tetrahydroindolizine-1-carboxamide] are 19 nM and 93 nM.
On to `C[C@@H]1Cc2ccccc2CN1C(=O)c1cc2c(cc1-c1cc(C(=O)N(C)c3ccc(O)cc3)c3n1CCCC3)CCNC2` [Example 27, N-(4-Hydroxyphenyl)-N-methyl-3-{7-[(3R)-3-methyl-1,2,3,4-tetrahydroisoquinoline-2-carbonyl]-1,2,3,4-tetrahydroisoquinolin-6-yl}-5,6,7,8-tetrahydroindolizine-1-carboxamide; trifluoroacetic acid salt], for which, in assay [1], the IC50 was found to be 83 nM.
On to `Cc1c(C(=O)N(C)c2ccc(O)cc2)cc(-c2cc3c(cc2C(=O)N2Cc4ccccc4C[C@H]2C)CN(C(=O)CN2CCCCC2)C3)n1C` [Example 176, 5-{2-[2-(1-Piperidyl)acetyl]-6-[(3R)-3-methyl-1,2,3,4-tetrahydroisoquinoline-2-carbonyl]-2,3-dihydro-1H-isoindol-5-yl}-N-(4-hydroxyphenyl)-N,1,2-trimethyl-1H-pyrrole-3-carboxamide], for which, in assay [1], the IC50 was determined as 78 nM.
In the case of `Cc1c(C(=O)N(C)c2ccc(O)cc2)cc(-c2cc3c(cc2C(=O)N2Cc4ccccc4C[C@H]2C)CN(C(=O)Oc2ccc(OCCN(C)C)cc2)CC3)n1C` [Example 476, 4-[2-(Dimethylamino)ethoxy]phenyl 6-{4-[(4-hydroxyphenyl)(methyl)carbamoyl]-1,5-dimethyl-1H-pyrrol-2-yl}-7-[(3R)-3-methyl-1,2,3,4-tetrahydroisoquinoline-2-carbonyl]-1,2,3,4-tetrahydroisoquinoline-2-carboxylate], in assay [1], the IC50 was found to be 1.8 nM.

These data come from patent US9809574B2, “Isoindoline or isoquinoline compounds, a process for their preparation and pharmaceutical compositions containing them” (LES LABORATOIRES SERVIER, priority 2013, dated 2017).
